PubChem BioAssay AID540270 (Broad Institute, 2011)
Active and inactive are the calls of the source. The rule behind the calls is not given here.

Biological target: Heat shock protein HSP 90-alpha (Homo sapiens) (UniProt P07900)
Experiment: growth inhibition of yeast carrying human Hsp90, dose response, counter-screen, plate reader, cherry-picked samples (AID 540270)
Details: yeast expressing human Hsp90, growth

Compound	AC50
O=C1CC(c2ccccc2)CC(O)=C1C=Nc1cccc(Cl)c1 (centres undefined)	4.28 µM
C[CH2][Hg][S]c1ccccc1C(=O)O	2.31 µM

Same assay, conditions: yeast expressing human Hsp90, growth, at 12 µM (top of the series)

Compound	activity, negative = inhibition
CCN(CC)c1ccc(/C=C2/SC(=O)N(C(C)C)C2=O)o1	inactive
O=C(/C(=C\c1ccccc1)c1nc2ccccc2[nH]1)c1ccc(Cl)cc1	inactive

Same assay, conditions: yeast expressing human Hsp90, growth, at 26 µM (top of the series)

Compound	activity, negative = inhibition
O=C(/C(=C/c1ccc(Cl)cc1)c1nc2ccccc2[nH]1)c1ccccc1	inactive
Cc1cc(Br)c2c(c1)/C(=C/C(=O)c1cccs1)C(=O)N2	inactive
CN(C)c1ccc(-c2cc(O)c3ncccc3c2)cc1	inactive
CC(C)OC(=O)c1ccc(NCc2cc(O)ccc2O)cc1Cl	inactive
COc1ccc(C(=O)Nc2cc(C(=O)c3ccccc3)c(C)oc2=O)cc1	inactive
O=C(COc1ccc(Cl)cc1)NC1=NN(c2ccccc2)C(=O)C1	inactive
Cc1ccc(N2C(=O)C3C4C=CC(CNC(=S)Nc5ccc(F)cc5)(O4)C3C2=O)cc1 (centres undefined)	inactive
CCOC(=O)c1cc([N+](=O)[O-])cc([N+](=O)[O-])c1Sc1ncnc2nc[nH]c12	inactive
NC(=O)/C=C\C(=O)Nc1cccc(C(F)(F)F)c1	inactive
Cc1ccc(/C=C2/NC(=O)N(Cc3ccc(Br)cc3)C2=O)o1	inactive
Cc1ccc(O)c(NC(=S)NC(=O)c2ccc(-c3ccc(Cl)cc3)o2)c1	inactive
Cc1ccc(N=c2ssnc2Cl)cc1	inactive
Cc1csc(CNc2ncnc3ccc(-c4cccc(Cl)c4)cc23)c1	inactive
CCOc1ccc(S(=O)(=O)NCc2ccccn2)c(C)c1C	inactive
O=C(CSCC(=O)N1CCCCC1)Nc1nc(-c2ccc(Cl)s2)cs1	inactive
O=C1/C(=C\c2ccc(Cl)cc2)CCC1CNc1ccc(Cl)cc1 (centres undefined)	inactive
O=C(O)/C=C/c1cn(-c2ccccc2)nc1-c1cc2ccccc2o1	inactive
CCCC1CCC(c2ccc(/C(N)=N/O)cc2)CC1 (centres undefined)	inactive
O=C(/C(=C/c1cccc(Cl)c1)c1nc2ccccc2[nH]1)c1ccccc1	inactive
O=C1S/C(=C/c2ccc(N3CCOCC3)o2)C(=O)N1Cc1c(F)cccc1Cl	inactive
CCOc1cc(S(=O)(=O)NC2CCCCCC2)ccc1F	inactive
COc1ccc(NC(=S)Nc2ccc3snnc3c2)cc1	inactive
Cc1ccc(N2C(=O)C3C4C=CC(CNC(=S)Nc5cccc(Cl)c5)(O4)C3C2=O)cc1 (centres undefined)	inactive
Cc1ccc(-c2cc(-c3ccc(F)cc3)c(C#N)c(N)n2)o1	inactive
COc1cc(N=c2ssnc2Cl)c(OC)cc1Cl	inactive
O=C1C=CC(=O)N1Cc1ccccc1	inactive
CC(=NNC(=S)N1CC2CCC(CC2)C1)c1nccs1	inactive
O=C(O)c1cccc(N/N=C/c2cc(Br)cc(Br)c2O)c1	inactive
CC1(C)N=C(SCC(=O)Nc2ccc(Cl)cc2Cl)C(c2ccccc2)=N1	inactive
Cc1ccc(OCc2n[nH]c(=S)n2C2CCCCC2)cc1	inactive
